Measured values published in publication PMC6343074, “New Irreversible α‐L‐Iduronidase Inhibitors and Activity‐Based Probes” (Chemistry (Weinheim an Der Bergstrasse, Germany), 2018).

Assays:
[1] = biological target: T1, rIDUA (human recombinant α-L-iduronidase, Aldurazyme) (Homo sapiens, UniProt P35475); assay: fluorogenic 4-MU-IdoA activity assay; format: biochemical; details: pH 4.5, 60 min incubation, competition with 4-MU-IdoA; covalent; read-out: apparent IC50
T1 construct: gene IDUA; therapeutic recombinant enzyme (Aldurazyme, Genzyme), secreted lysosomal glycoprotein; chymotryptic active-site peptide Asn297-Leu303 with nucleophile Glu299
T1 sequence (P35475 28-653): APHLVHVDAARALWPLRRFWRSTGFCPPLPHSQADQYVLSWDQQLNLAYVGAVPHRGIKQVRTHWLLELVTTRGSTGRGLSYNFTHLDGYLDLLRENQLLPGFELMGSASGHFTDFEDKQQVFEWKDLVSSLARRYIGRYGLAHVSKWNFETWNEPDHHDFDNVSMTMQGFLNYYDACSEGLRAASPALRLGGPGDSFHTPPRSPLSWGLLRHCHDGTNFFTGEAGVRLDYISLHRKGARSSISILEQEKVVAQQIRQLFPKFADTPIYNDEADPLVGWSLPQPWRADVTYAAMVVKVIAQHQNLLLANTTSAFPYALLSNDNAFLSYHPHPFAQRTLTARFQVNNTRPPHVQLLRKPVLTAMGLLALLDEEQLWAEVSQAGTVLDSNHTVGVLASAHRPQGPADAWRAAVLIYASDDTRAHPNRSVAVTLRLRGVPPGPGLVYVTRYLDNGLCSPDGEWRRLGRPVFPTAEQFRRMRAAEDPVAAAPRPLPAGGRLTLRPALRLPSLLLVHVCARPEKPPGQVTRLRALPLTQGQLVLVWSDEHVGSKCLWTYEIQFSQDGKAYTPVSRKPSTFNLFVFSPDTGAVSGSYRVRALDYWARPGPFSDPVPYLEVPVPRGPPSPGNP

[2] = biological target: T1, rIDUA (human recombinant α-L-iduronidase, Aldurazyme); assay: biochemical; parameters: residual rIDUA activity after 1 h preincubation, fluorogenic 4-MU-alpha-L-IdoA substrate, pH 4.5, apparent IC50
Protocol: Apparent IC50 values of inhibitors and ABPs on recombinant human iduronidase and cell lysates Inhibitors and ABPs were diluted at various concentrations in 12.5 µL assay buffer and incubated with 12.5 µL rIDUA (5.8 ng, or 70 fmol) or fibroblast lysates (50 µg protein), both diluted in assay buffer, at 37°C for 1 h (rIDUA) or 4 h (fibroblasts lysates), at 1% (v/v) DMSO concentration. This was followed by iduronidase activity assay (30 min incubation time) described in the previous section. The detected 4-MU fluorescence at each concentration for each compound were normalized to the fluorescence from the control sample without inhibitor, and data were fitted with [inhibitor] vs response – variable slope (four parameters) function in Graphpad Prism 7.0 software to obtain apparent IC50 values. Iduronidase activity assay using 4-MU-α-L-IdoA as substrate Samples containing enzyme were diluted in assay buffer (150 mM citrate/Na2HPO4, pH 4.5, supplemented with 0.1% (v/v) Triton X-100, 0.15 M NaCl, 33 mM CaCl2, 33 mM MgCl2), and load onto a black flat-bottom 96-well plate (Greiner) in triplicates of 25 µL per well. Negative controls (blank) were prepared by substituting enzyme samples with buffer. For reaction, samples were added with 25 µL of 360 µM 4-MU-α-L-IdoA1 (prepared in assay buffer supplemented with 0.1 % (w/v) bovine serum albumin (BSA)), and incubated at 37°C for 30 min to 4h. […]

Work on `[N-]=[N+]=NCCCCCCCCN1[C@@H]2[C@@H](C(=O)O)[C@@H](O)[C@H](O)[C@@H](O)[C@@H]21` (stereo partly drawn) [compound 1, inhibitor 1] yielded an IC50 [1] of 40.6 ± 17 µM.
For `OC[C@H]1[C@@H](O)[C@H](O)[C@@H](O)[C@@H]2N[C@H]12` [compound 11, aziridine 11], the IC50 [2] was over 100 µM.
For `[N-]=[N+]=NCCCCCCCCN1[C@@H]2[C@@H](CO)[C@@H](O)[C@H](O)[C@@H](O)[C@@H]21` (stereo partly drawn) [compound 12, alkyl aziridine 12], the IC50 [1] was 12.2 ± 3.24 µM.
